Experimental data from US6482984B2 (priority 2000, dated 2002).

What was measured:
Assay type in all cases: in vivo
[1] = system: powdery mildew of wheat (Erysiphe graminis forma specialis tritici); test: Activity against powdery mildew of wheat (protective spray, potted wheat seedlings); conditions: 1 ppm active ingredient; wheat seedlings c.v. Frühgold; dusted with spores 24 hours after spraying; scored visually after 7 days; untreated plants infected to 90%
Protocol: (§1) The active ingredients were formulated as a 10% strength emulsion in a mixture of 63% by weight of cyclohexanone and 27% by weight of emulsifier and diluted to the desired concentration with water.
Leaves of potted wheat seedlings c.v. “Frühgold” were sprayed to run off point with an aqueous preparation of active ingredient which had been prepared using a stock solution of 10% of active ingredient, 63% of cyclohexanone and 27% of emulsifier and, 24 hours after the spray coating had dried on, dusted with spores of powdery mildew of wheat (Erysiphe graminis forma specialis tritici). The test plants were subsequently placed in a greenhouse at 20-24° C. and 60-90% relative atmospheric humidity. After 7 days, the extent of the mildew development was scored visually in % infection of the total leaf area.

[2] = system: Pyricularia oryzae; conditions: 63 ppm active ingredient; rice seedlings c.v. Tai-Nong 67; inoculated the day after spraying (protective); 6 days; determined visually; untreated plants infected to 85%
[3] = system: Puccinia recondita; test: Curative activity against Puccinia recondita on wheat (leaf rust of wheat); conditions: 16 ppm active ingredient; wheat seedlings c.v. Kanzler; sprayed the day after infection (curative); 7 days in greenhouse; untreated plants infected to 95%
Protocol: as §1
Leaves of potted wheat seedlings c.v. “Kanzler” were dusted with leaf rust spores (Puccinia recondita). The pots were then placed for 24 hours in a chamber with high atmospheric humidity (90 to 95%) at 20 to 22° C. During this time, the spores germinated, and the germinal tubes penetrated the leaf tissue. The next day, the infected plants were sprayed to run off point with an aqueous preparation of active ingredient which had been prepared using a stock solution of 10% of active ingredient, 63% of cyclohexanone and 27% of emulsifier. After the spray coating had dried on, the test plants were cultivated for 7 days in a greenhouse at 20-22° C. and a relative atmospheric humidity of 65-70%. The extent of rust development on the leaves was then determined.

Row | SMILES | extent of the mildew development, % infection of the total leaf area [1] | extent of the development of the infection on the leaves [2] | extent of rust development on the leaves (infection) [3]
1 | CNC(=O)/C(=N/OC)c1ccccc1COc1ccc(OC(C)/C(C)=N/OC)cc1C (stereo not shown) [I-1, 2-Methoxyimino-2-{2-[4-(2-methoxyimino-1-methyl-propoxy)-2-methylphenoxymethyl]phenyl}-N-methyl-acetamide] | no infection |  | 
2 | CNC(=O)/C(=N/OC)c1ccccc1COc1ccc(/C(C)=N/OC)cc1C [compound B] | 25% | 40% | 25%
3 | CNC(=O)/C(=N/OC)c1ccccc1COc1ccccc1C [compound A] | 60% | 25% | 60%
